Assay results from patent EP0319030A1, “Aminopropanol derivatives of 1,4:3,6-dianhydro-hexitol nitrates, processes for their preparation and their use as medicaments” (Heinrich Mack Nachf., priority 1987, dated 1989).
Marks after values point to notes of the source that are not given here.

Assays:
Type in all cases: in vivo
Mice = experiment: Peroral tolerance in mice; conditions: mouse, in vivo
Source text: Set forth below is data obtained on the compounds of Examples 17, 19 and 20 that illustrates the pharmacological action of the compounds of the present invention.

anesthetized rat = experiment: Lypressin-induced T-wave increase in the ECG (lypressin coronary spasm), method of M. Leitold et al.
Source text: (§1) In particular, they have a pronounced cardiovascular action. On isolated strips of veins from dogs, they act against the K⁺-induced contraction in a lower concentration than on aorta strips. On isolated hearts from guinea pigs, they increase coronary flow as a function of the dose. On anesthetized rats, they prevent lypressin coronary spasm as a function of the dose and significiantly increase the survival rate of rats following acute cardiac infarction. On normotensive conscious dogs, they lower the systolic blood pressure for a period of 6-8 hours after oral administration. On artifically respirated anesthetized, thoraxotomized dogs, they reduce the mean arterial pressure, the left ventricular systolic pressure, the left ventricular end diastolic pressure and the pressure in the Arteria pulmonalis and reduce the peripheral vascular resistance. In contrast to the known organic nitrate esters, they also lead to a long-lasting reduction in the systolic blood pressure of spontaneously hypertensive rats. Such an action profile is not known for any of the substances of similar structure which have already been described.

rats = experiment: Survival rate after acute coronary ligature, method of I. Lepran et al.; conditions: 30.0 mg/kg orally 5 minutes before ligature
Source text: as §1

anesthetized dogs = experiment: Cardiovascular actions following intra-venous administration, opened thorax and artificial respiration; conditions: opened thorax, artificial respiration
Source text: as §1

conscious beagle dogs = experiment: Systolic blood pressure and heart rate following peroral administration; conditions: 6.0 mg/kg peroral, mean ± SEM
Source text: as §1

SMILES: COc1ccccc1N1CCN(CC(O)CO[C@H]2CO[C@H]3[C@@H]2OC[C@H]3O[N+](=O)[O-])CC1 (stereo partly shown) [Example 17, 2-O-<3-[4-(2-Methoxyphenyl)-piperazinyl]-2-hydroxypropyl>-isosorbide-5-nitrate]
- tolerance (clinical symptoms, fatal consequences) (Mice): without clinical symptoms and without fatal consequences
- ED50 (anesthetized rat; Rattus norvegicus, po, 0.5 h, perorally 30 minutes before the lypressin injection, dose column in mg/kg): 89.5 mg/kg
- Duration of action at the ED50 dose (anesthetized rat; perorally at various times before the lypressin injection): 2 h
- Number of rats surviving after an acute coronary ligature, 24 hours (rats; control 21/80): 17/20**
- Number of rats surviving after an acute coronary ligature, 7 days (rats; control 21/80): 17/20**
- Number of rats surviving after an acute coronary ligature, 60 minutes (rats; control 23/80): 17/20**
- CO, Action of substance (anesthetized dogs; 30 µg/kg intra-venous): 0.93 ± 0.07 l/M
- CO, Change (anesthetized dogs; 30 µg/kg intra-venous): 0.07 ± 0.04 l/M
- CO, Duration of action (anesthetized dogs; 30 µg/kg intra-venous): 6 ± 3 min
- HR (heart rate), Action of substance (anesthetized dogs; 30 µg/kg intra-venous): 219 ± 18 Bts/M
- HR (heart rate), Change (anesthetized dogs; 30 µg/kg intra-venous): 21 ± 18 Bts/M
- HR (heart rate), Duration of action (anesthetized dogs; 30 µg/kg intra-venous): 6 ± 2 min
- LVEDP (left ventricular enddiastolic pressure), Action of substance (anesthetized dogs; 30 µg/kg intra-venous): 6.2 ± 0.7 mmHg
- LVEDP (left ventricular enddiastolic pressure), Change (anesthetized dogs; 30 µg/kg intra-venous): 0.2 ± 0.03 mmHg
- LVEDP (left ventricular enddiastolic pressure), Duration of action (anesthetized dogs; 30 µg/kg intra-venous): 2.2 ± 1.3 min
- LVSP (left ventricular systolic blood pressure), Action of substance (anesthetized dogs; 30 µg/kg intra-venous): 131 ± 9 mmHg
- LVSP (left ventricular systolic blood pressure), Change (anesthetized dogs; 30 µg/kg intra-venous): 19 ± 6 mmHg
- LVSP (left ventricular systolic blood pressure), Duration of action (anesthetized dogs; 30 µg/kg intra-venous): 5 ± 3 min
- MAP (mean arterial blood pressure), Action of substance (anesthetized dogs; 30 µg/kg intra-venous): 83 ± 1 mmHg
- MAP (mean arterial blood pressure), Change (anesthetized dogs; 30 µg/kg intra-venous): 23 ± 2 mmHg
- MAP (mean arterial blood pressure), Duration of action (anesthetized dogs; 30 µg/kg intra-venous): 14 ± 1 min
- PAP, Action of substance (anesthetized dogs; 30 µg/kg intra-venous): 17.0 ± 4 mmHg
- PAP, Change (anesthetized dogs; 30 µg/kg intra-venous): 1.3 ± 0.5 mmHg
- PAP, Duration of action (anesthetized dogs; 30 µg/kg intra-venous): 2 ± 0.3 min
- SV, Action of substance (anesthetized dogs; 30 µg/kg intra-venous): 52 ± 0.4 mL/s
- SV, Change (anesthetized dogs; 30 µg/kg intra-venous): 0.4 ± 0.2 mL/s
- SV, Duration of action (anesthetized dogs; 30 µg/kg intra-venous): 2 ± 0.2 min
- TPR (total peripheral vascular resistance), Action of substance (anesthetized dogs; 30 µg/kg intra-venous): 65 ± 12 mmHg/ml
- TPR (total peripheral vascular resistance), Change (anesthetized dogs; 30 µg/kg intra-venous): 23 ± 4 mmHg/ml
- TPR (total peripheral vascular resistance), Duration of action (anesthetized dogs; 30 µg/kg intra-venous): > 14 min
- dp/dtmax (maximum rate of increase in the left ventricular pressure), Action of substance (anesthetized dogs; 30 µg/kg intra-venous): 3144 ± 166 mmHg/s
- dp/dtmax (maximum rate of increase in the left ventricular pressure), Change (anesthetized dogs; 30 µg/kg intra-venous): 424 ± 95 mmHg/s
- dp/dtmax (maximum rate of increase in the left ventricular pressure), Duration of action (anesthetized dogs; 30 µg/kg intra-venous): 8 ± 3 min
- CO, Action of substance (anesthetized dogs; 300 µg/kg intra-venous): 0.684 ± 0.137 l/M
- CO, Change (anesthetized dogs; 300 µg/kg intra-venous): 0.127 ± 0.046 l/M
- CO, Duration of action (anesthetized dogs; 300 µg/kg intra-venous): 73 ± 40 min
- HR (heart rate), Action of substance (anesthetized dogs; 300 µg/kg intra-venous): 206 ± 15 Bts/M
- HR (heart rate), Change (anesthetized dogs; 300 µg/kg intra-venous): 15 ± 13 Bts/M
- HR (heart rate), Duration of action (anesthetized dogs; 300 µg/kg intra-venous): 2.4 ± 1 min
- LVEDP (left ventricular enddiastolic pressure), Action of substance (anesthetized dogs; 300 µg/kg intra-venous): 5.5 ± 0.8 mmHg
- LVEDP (left ventricular enddiastolic pressure), Change (anesthetized dogs; 300 µg/kg intra-venous): 0.3 ± 0.1 mmHg
- LVEDP (left ventricular enddiastolic pressure), Duration of action (anesthetized dogs; 300 µg/kg intra-venous): 5.6 ± 2 min
- LVSP (left ventricular systolic blood pressure), Action of substance (anesthetized dogs; 300 µg/kg intra-venous): 115 ± 4 mmHg
- LVSP (left ventricular systolic blood pressure), Change (anesthetized dogs; 300 µg/kg intra-venous): 39 ± 5 mmHg
- LVSP (left ventricular systolic blood pressure), Duration of action (anesthetized dogs; 300 µg/kg intra-venous): 151 ± 24 min
- MAP (mean arterial blood pressure), Action of substance (anesthetized dogs; 300 µg/kg intra-venous): 49 ± 3 mmHg
- MAP (mean arterial blood pressure), Change (anesthetized dogs; 300 µg/kg intra-venous): 55 ± 6 mmHg
- MAP (mean arterial blood pressure), Duration of action (anesthetized dogs; 300 µg/kg intra-venous): 157 ± 39 min
- PAP, Action of substance (anesthetized dogs; 300 µg/kg intra-venous): 18.2 ± 5 mmHg
- PAP, Change (anesthetized dogs; 300 µg/kg intra-venous): 1.5 ± 0.5 mmHg
- PAP, Duration of action (anesthetized dogs; 300 µg/kg intra-venous): 1.4 ± 0.1 min
- SV, Action of substance (anesthetized dogs; 300 µg/kg intra-venous): 3.7 ± 0.4 mL/s
- SV, Change (anesthetized dogs; 300 µg/kg intra-venous): 0.7 ± 0.3 mL/s
- SV, Duration of action (anesthetized dogs; 300 µg/kg intra-venous): 74 ± 43 min
- TPR (total peripheral vascular resistance), Action of substance (anesthetized dogs; 300 µg/kg intra-venous): 42 ± 2 mmHg/ml
- TPR (total peripheral vascular resistance), Change (anesthetized dogs; 300 µg/kg intra-venous): 42 ± 6 mmHg/ml
- TPR (total peripheral vascular resistance), Duration of action (anesthetized dogs; 300 µg/kg intra-venous): 163 ± 16 min
- dp/dtmax (maximum rate of increase in the left ventricular pressure), Action of substance (anesthetized dogs; 300 µg/kg intra-venous): 2133 ± 310 mmHg/s
- dp/dtmax (maximum rate of increase in the left ventricular pressure), Change (anesthetized dogs; 300 µg/kg intra-venous): 1547 ± 423 mmHg/s
- dp/dtmax (maximum rate of increase in the left ventricular pressure), Duration of action (anesthetized dogs; 300 µg/kg intra-venous): > 197 min
- CO, Action of substance (anesthetized dogs; 3000 µg/kg intra-venous): 0.405 ± 0.055 l/M
- CO, Change (anesthetized dogs; 3000 µg/kg intra-venous): 0.450 ± 0.025 l/M
- CO, Duration of action (anesthetized dogs; 3000 µg/kg intra-venous): > 75 min
- HR (heart rate), Action of substance (anesthetized dogs; 3000 µg/kg intra-venous): 182 ± 17 Bts/M
- HR (heart rate), Change (anesthetized dogs; 3000 µg/kg intra-venous): 20 ± 17 Bts/M
- HR (heart rate), Duration of action (anesthetized dogs; 3000 µg/kg intra-venous): 1.4 ± 0.3 min
- LVEDP (left ventricular enddiastolic pressure), Action of substance (anesthetized dogs; 3000 µg/kg intra-venous): 5.6 ± 1 mmHg
- LVEDP (left ventricular enddiastolic pressure), Change (anesthetized dogs; 3000 µg/kg intra-venous): 0.6 ± 0.3 mmHg
- LVEDP (left ventricular enddiastolic pressure), Duration of action (anesthetized dogs; 3000 µg/kg intra-venous): > 73 min
- LVSP (left ventricular systolic blood pressure), Action of substance (anesthetized dogs; 3000 µg/kg intra-venous): 113 ± 3 mmHg
- LVSP (left ventricular systolic blood pressure), Change (anesthetized dogs; 3000 µg/kg intra-venous): 48 ± 3 mmHg
- LVSP (left ventricular systolic blood pressure), Duration of action (anesthetized dogs; 3000 µg/kg intra-venous): > 74 min
- MAP (mean arterial blood pressure), Action of substance (anesthetized dogs; 3000 µg/kg intra-venous): 33 ± 2 mmHg
- MAP (mean arterial blood pressure), Change (anesthetized dogs; 3000 µg/kg intra-venous): 67 ± 4 mmHg
- MAP (mean arterial blood pressure), Duration of action (anesthetized dogs; 3000 µg/kg intra-venous): > 114 min
- PAP, Action of substance (anesthetized dogs; 3000 µg/kg intra-venous): 18.2 ± 7 mmHg
- PAP, Change (anesthetized dogs; 3000 µg/kg intra-venous): 2.3 ± 0.8 mmHg
- PAP, Duration of action (anesthetized dogs; 3000 µg/kg intra-venous): 2 ± 0.6 min
- SV, Action of substance (anesthetized dogs; 3000 µg/kg intra-venous): 3.0 ± 0.6 mL/s
- SV, Change (anesthetized dogs; 3000 µg/kg intra-venous): 2.6 ± 0.4 mL/s
- SV, Duration of action (anesthetized dogs; 3000 µg/kg intra-venous): > 75 min
- TPR (total peripheral vascular resistance), Action of substance (anesthetized dogs; 3000 µg/kg intra-venous): 44 ± 10 mmHg/ml
- TPR (total peripheral vascular resistance), Change (anesthetized dogs; 3000 µg/kg intra-venous): 74 ± 6 mmHg/ml
- TPR (total peripheral vascular resistance), Duration of action (anesthetized dogs; 3000 µg/kg intra-venous): 24 ± 6 min
- dp/dtmax (maximum rate of increase in the left ventricular pressure), Action of substance (anesthetized dogs; 3000 µg/kg intra-venous): 2019 ± 123 mmHg/s
- dp/dtmax (maximum rate of increase in the left ventricular pressure), Change (anesthetized dogs; 3000 µg/kg intra-venous): 1828 ± 238 mmHg/s
- dp/dtmax (maximum rate of increase in the left ventricular pressure), Duration of action (anesthetized dogs; 3000 µg/kg intra-venous): > 75 min
- HR (heart rate), Action of substance after 1 hours (conscious beagle dogs): 101 ± 17 Bts/M
- HR (heart rate), Action of substance after 2 hours (conscious beagle dogs): 110 ± 16 Bts/M
- HR (heart rate), Action of substance after 4 hours (conscious beagle dogs): 89 ± 8 Bts/M
- HR (heart rate), Action of substance after 6 hours (conscious beagle dogs): 89 ± 5 Bts/M
- HR (heart rate), Action of substance after 8 hours (conscious beagle dogs): 85 ± 7 Bts/M
- SBP (systolic blood pressure), Action of substance after 1 hours (conscious beagle dogs): 91 ± 6 mmHg
- SBP (systolic blood pressure), Action of substance after 2 hours (conscious beagle dogs): 89 ± 4 mmHg
- SBP (systolic blood pressure), Action of substance after 4 hours (conscious beagle dogs): 97 ± 5 mmHg
- SBP (systolic blood pressure), Action of substance after 6 hours (conscious beagle dogs): 101 ± 5 mmHg
- SBP (systolic blood pressure), Action of substance after 8 hours (conscious beagle dogs): 115 ± 7 mmHg
